Tested on: PBMC from HLA-A*02:01 Chagas disease patients and healthy donors
Assay: Cytokine secretion test (Bio-Plex multiplex immunoassay) in PBMC supernatants
Type: cell-based, human
Settings: 1 μM peptide, 30 h; for IFNγ / IL6 / TNFα: non-peptide control subtracted
Procedure: For the screening of the recognition of TcCA-2 epitopes by Chagas disease patients, 10 HLA-A*02:01 adult patients in the asymptomatic phase of the disease (IND) were enrolled. For cytotoxicity, functional activity determinations and phenotypic characterization another group of 19 HLA-A*02:01 adults Chagas disease patients and 9 healthy donors were analyzed. These patients were at the chronic stage of the disease and were considered to be at the asymptomatic phase (IND, n = 8) if there was no evidence of having cardiac or gastrointestinal disorders. Chronic Chagas cardiomyopathy patients (CCC, n = 11) were stratified into G1 to G3 stages following Kuschnir classification according to clinical criteria and radiological, electrocardiographic and echocardiography analyses. The number of patients was the one recommended by the Hospital Ethical Committee. […] The patients were enrolled in both studies (functional and phenotypic characterization, IND n = 6 and CCC n = 7) when the available number of purified PBMC (limited by the cellular number isolated from each subject) was enough for both analyses. Another four CCC patients had to be enrolled to perform the phenotypic analysis in order to reach statistical significance.
Cytokine secretion (IL-4, IL-10, IL-6, IFN-γ, TNF-α) was determined in the supernatants of PBMC from Chagas disease patients and healthy donors, after in vitro stimulation with 1 μM of each peptide for 30 h at 37°C in RPMI supplemented with 10% iFBS as explained before. The secretion profile was determined by using a bead-based multiplex immunoassay system (Bio-Plex, Bio-Rad), following the manufacturer's instructions. The response was considered positive if an increase in the secretion of cytokines was at least three folds higher than the secretion by un-stimulated cells (basal secretion level) and at least, 4 pg/mL for IL-4, 2 pg/mL for IL-10, 15 pg/mL for IL-6 and 5 pg/mL for IFN-γ and TNF-α. The positive control consisted of 50 ng/mL Phorbol 12 myristate 13-acetate (PMA) and 500 ng/mL ionomycin (Sigma). Cytokine levels were quantified in each sample by using the Bio-Plex Manager software 4.1 (Bio-Rad).
Functional analysis of the epitope-specific CD8^+ T cells was carried out by the determination of the secretion profile of IFN-γ, TNF-α, IL-4, IL10 and IL-6 cytokines. […] CD8^+ T cells from 2 out of 11 patients responded to stimulation with peptide TcCA-2_273-281 by secreting IL-6. […] There was no secretion of IL-4 and IL-10 in PBMC after stimulation with any one of the four TcCA-2 peptides (data not shown). IFN-γ, TNF-α and IL6 cytokines secretion levels were higher in patients at the asymptomatic phase of the disease than in Chagas patients with associated cardiomyopathy.

Sequence: ALQVTNHRYL [TcCA-2_657-666]
- IFNγ (PBMC of patient CCC I 770): 0 pg/mL
- IL6 (PBMC of patient CCC I 770): 1 pg/mL
- TNFα (PBMC of patient CCC I 770): -6 pg/mL
- IFNγ (PBMC of patient CCC I 861): 0 pg/mL
- IL6 (PBMC of patient CCC I 861): -4 pg/mL
- TNFα (PBMC of patient CCC I 861): -2 pg/mL
- IFNγ (PBMC of patient CCC I 884): 0 pg/mL
- IL6 (PBMC of patient CCC I 884): 0 pg/mL
- TNFα (PBMC of patient CCC I 884): 0 pg/mL
- IFNγ (PBMC of patient CCC III 509): 0 pg/mL
- IL6 (PBMC of patient CCC III 509): -4 pg/mL
- TNFα (PBMC of patient CCC III 509): -5 pg/mL
- IFNγ (PBMC of patient IND 365): 2 pg/mL
- IL6 (PBMC of patient IND 365): 10 pg/mL
- TNFα (PBMC of patient IND 365): 14 pg/mL
- IFNγ (PBMC of patient IND 388): 2 pg/mL
- IL6 (PBMC of patient IND 388): 2 pg/mL
- TNFα (PBMC of patient IND 388): -5 pg/mL
- IFNγ (PBMC of patient IND 510): 0 pg/mL
- IL6 (PBMC of patient IND 510): -3 pg/mL
- TNFα (PBMC of patient IND 510): 1 pg/mL
- IFNγ (PBMC of patient IND 535): 0 pg/mL
- IL6 (PBMC of patient IND 535): -5 pg/mL
- TNFα (PBMC of patient IND 535): -2 pg/mL
- IFNγ (PBMC of patient IND 571): 1 pg/mL
- IL6 (PBMC of patient IND 571): 0 pg/mL
- TNFα (PBMC of patient IND 571): 0 pg/mL
- IFNγ (PBMC of patient IND 917): -1 pg/mL
- IL6 (PBMC of patient IND 917): -17 pg/mL
- TNFα (PBMC of patient IND 917): -17 pg/mL
- IFNγ (PBMC of subject HD 001): -2 pg/mL
- IL6 (PBMC of subject HD 001): 1 pg/mL
- TNFα (PBMC of subject HD 001): -6 pg/mL
- IFNγ (PBMC of subject HD 004): 4 pg/mL
- IL6 (PBMC of subject HD 004): -12 pg/mL
- TNFα (PBMC of subject HD 004): -1 pg/mL
- IFNγ (PBMC of subject HD 005): 0 pg/mL
- IL6 (PBMC of subject HD 005): -58 pg/mL
- TNFα (PBMC of subject HD 005): -4 pg/mL
- IFNγ (PBMC of subject HD 006): 3 pg/mL
- IL6 (PBMC of subject HD 006): -5 pg/mL
- TNFα (PBMC of subject HD 006): 1 pg/mL
- IFNγ (PBMC of subject HD 008): -3 pg/mL
- IL6 (PBMC of subject HD 008): 3 pg/mL
- TNFα (PBMC of subject HD 008): -21 pg/mL
- IFNγ (PBMC of subject HD 011): 0 pg/mL
- IL6 (PBMC of subject HD 011): -4 pg/mL
- TNFα (PBMC of subject HD 011): 0 pg/mL
- IFNγ (PBMC of subject HD 017): 0 pg/mL
- IL6 (PBMC of subject HD 017): 0 pg/mL
- TNFα (PBMC of subject HD 017): 0 pg/mL
- IFNγ (PBMC of subject HD 340): 1 pg/mL
- IL6 (PBMC of subject HD 340): 22 pg/mL
- TNFα (PBMC of subject HD 340): 8 pg/mL
- IFNγ (PBMC of subject HD 664): -3 pg/mL
- IL6 (PBMC of subject HD 664): 0 pg/mL
- TNFα (PBMC of subject HD 664): 0 pg/mL

Sequence: ALRNLRVFL [TcCA-2_607-615]
- Patients whose cells recognized the peptide by secreting IFN-γ, TNF-α and IL-6 (PBMC of Chagas patients, positive = at least three folds non-peptide control and ≥15 pg/mL IL-6, ≥5 pg/mL IFN-γ and TNF-α): 2 out of the 14
- IFNγ (PBMC of patient CCC I 456): 3 pg/mL
- IL6 (PBMC of patient CCC I 456): 18 pg/mL
- TNFα (PBMC of patient CCC I 456): 12 pg/mL
- IFNγ (PBMC of patient CCC I 770): 0 pg/mL
- IL6 (PBMC of patient CCC I 770): 49 pg/mL
- TNFα (PBMC of patient CCC I 770): 16 pg/mL
- IFNγ (PBMC of patient CCC I 861): 0 pg/mL
- IL6 (PBMC of patient CCC I 861): -7 pg/mL
- TNFα (PBMC of patient CCC I 861): -3 pg/mL
- IFNγ (PBMC of patient CCC I 884): 0 pg/mL
- IL6 (PBMC of patient CCC I 884): 0 pg/mL
- TNFα (PBMC of patient CCC I 884): 0 pg/mL
- IFNγ (PBMC of patient CCC II 142): 0 pg/mL
- IL6 (PBMC of patient CCC II 142): -4 pg/mL
- TNFα (PBMC of patient CCC II 142): -15 pg/mL
- IFNγ (PBMC of patient CCC III 509): 0 pg/mL
- IL6 (PBMC of patient CCC III 509): -5 pg/mL
- TNFα (PBMC of patient CCC III 509): -4 pg/mL
- IFNγ (PBMC of patient CCC III 797): -5 pg/mL
- IL6 (PBMC of patient CCC III 797): 9 pg/mL
- TNFα (PBMC of patient CCC III 797): 3 pg/mL
- IFNγ (PBMC of patient IND 265): 81 pg/mL
- IL6 (PBMC of patient IND 265): 1127 pg/mL
- TNFα (PBMC of patient IND 265): 83 pg/mL
- IFNγ (PBMC of patient IND 283): 15 pg/mL
- IL6 (PBMC of patient IND 283): 55 pg/mL
- TNFα (PBMC of patient IND 283): 26 pg/mL
- IFNγ (PBMC of patient IND 365): 5 pg/mL
- IL6 (PBMC of patient IND 365): 23 pg/mL
- TNFα (PBMC of patient IND 365): 23 pg/mL
- IFNγ (PBMC of patient IND 388): 1 pg/mL
- IL6 (PBMC of patient IND 388): 32 pg/mL
- TNFα (PBMC of patient IND 388): -11 pg/mL
- IFNγ (PBMC of patient IND 510): 0 pg/mL
- IL6 (PBMC of patient IND 510): -1 pg/mL
- TNFα (PBMC of patient IND 510): 2 pg/mL
- IFNγ (PBMC of patient IND 535): 0 pg/mL
- IL6 (PBMC of patient IND 535): -5 pg/mL
- TNFα (PBMC of patient IND 535): -1 pg/mL
- IFNγ (PBMC of patient IND 917): 1 pg/mL
- IL6 (PBMC of patient IND 917): -2 pg/mL
- TNFα (PBMC of patient IND 917): -3 pg/mL
- IFNγ (PBMC of subject HD 001): 1 pg/mL
- IL6 (PBMC of subject HD 001): -6 pg/mL
- TNFα (PBMC of subject HD 001): -14 pg/mL
- IFNγ (PBMC of subject HD 004): 0 pg/mL
- IL6 (PBMC of subject HD 004): -5 pg/mL
- TNFα (PBMC of subject HD 004): 0 pg/mL
- IFNγ (PBMC of subject HD 005): -21 pg/mL
- IL6 (PBMC of subject HD 005): -77 pg/mL
- TNFα (PBMC of subject HD 005): -2 pg/mL
- IFNγ (PBMC of subject HD 006): 13 pg/mL
- IL6 (PBMC of subject HD 006): 69 pg/mL
- TNFα (PBMC of subject HD 006): 5 pg/mL
- IFNγ (PBMC of subject HD 008): 3 pg/mL
- IL6 (PBMC of subject HD 008): 22 pg/mL
- TNFα (PBMC of subject HD 008): 0 pg/mL
- IFNγ (PBMC of subject HD 011): 0 pg/mL
- IL6 (PBMC of subject HD 011): -12 pg/mL
- TNFα (PBMC of subject HD 011): -8 pg/mL
- IFNγ (PBMC of subject HD 340): 0 pg/mL
- IL6 (PBMC of subject HD 340): 6 pg/mL
- TNFα (PBMC of subject HD 340): 0 pg/mL
- IFNγ (PBMC of subject HD 664): -3 pg/mL
- IL6 (PBMC of subject HD 664): 0 pg/mL
- TNFα (PBMC of subject HD 664): 0 pg/mL
